How the values were obtained:
Format in all cases: cell-based
[1] = system: Purkinje cells induced from human pluripotent stem cell aggregates; test: Patch clamp analysis of Purkinje cells induced from human pluripotent stem cells; conditions: AMPA receptor inhibitor
Protocol: Mature Purkinje cells were differentiated from human pluripotent stem cell aggregates according to the method of Example 3. Using the Patch clamp technique, the electrophysiological reaction thereof was analyzed.

Human ES cells (KhES-1) = test: Differentiation of human ES cell aggregates (SFEBq method) into midbrain-hindbrain boundary neural progenitors
Protocol: Human ES cells (KhES-1) subjected to maintenance culturing on MEF by a conventional method were used. To differentiate human ES cells by the serum-free floating culture of embryoid body-like aggregates with quick reaggregation (SFEBq method), human ES cells were enzymatically dispersed to single cells, according to the method of Nakano et al. (Cell Stem Cell, 10(6), 771-785, 2012), and reaggregated using a low-cell-adhesive V-bottom 96 well plate (SUMITOMO BAKELITE). 6,000 cells were seeded per well, and cultured in, as a differentiation medium, CDM medium [chemical synthesis medium without a growth factor (growth-factor-free Chemically Defined Medium; gfCDM; Wataya et al., Proc. Natl. Acad. Sci. USA, 105, 11796-11801, 2008) supplemented with insulin (7 μg/ml) and apo-transferrin (15 μg/ml)] under 5% CO2 at 37° C.
The seeding day is taken as day 0 of differentiation culturing. […] […] On day 7, ⅓ of the medium was exchanged with a differentiation medium free of Y-27632, SB431542 and Fgf2. On day 14 of culturing, the medium was completely substituted by a differentiation medium free of Y-27632, SB431542 and FGF2. The cell aggregates were fixed and sliced, and tissue differentiation was analyzed by the immunofluorescence method and quantitative PCR method.

[2] = system: Human pluripotent stem cell aggregates; test: Self-formation of cerebellar plate tissue (Kirrel2 positive neuroepithelium) from human pluripotent stem cell aggregates
Protocol: The was aggregates were transferred to a low-cell-adhesion 10 cm dish on and after day 21, and cultured in a neural culture medium (Neurobasal/GlutaMaxI/N2, all Life Technologies). On day 28 of culturing, the total amount of the medium was exchanged with the same neural culture medium, and differentiation of the tissue was analyzed by the immunofluorescence method on day 35 of culturing.
Separated Kirrel2 positive cells, and cerebellar granule cell progenitors prepared from the upper rhombic lip of embryonic day 14 mouse were dispersed into single cells by cell dispersion enzyme (TrypLE, Life Technologies), and cocultured on a cover glass coated with poly D-lysine/laminin in DMEM/F12/10% FBS medium (5% CO2, 37° C.). In coculture, human pluripotent stem cell-derived Kirrel positive cells (1 vol) relative to mouse-derived cerebellar granule cell progenitors (10 vol) were mixed. After 6-12 hr, DMEM/F12/N2/BSA/Tri-iodothyronine (T3) was added to decrease the FBS concentration to about 0.8%.

[3] = system: Human pluripotent stem cell aggregates; test: Formation of cerebellar plate tissue having dorsal-ventral axis pattern by addition of FGF19
Protocol: Human pluripotent stem cell aggregates were cultured according to the methods of Examples 1 and 2. […] The cells were cultured in a neural culture medium (Neurobasal/GlutaMaxI/N2) on and after day 21. On day 28, the total amount of the medium was exchanged with the same medium, and on day 35, tissue differentiation was analyzed by the immunofluorescence method.

[4] = system: Human pluripotent stem cell aggregates; test: Formation of rhombic lip and 3 layer structure of cerebellar plate by addition of SDF1
Protocol: Human pluripotent stem cell aggregates were cultured according to the method of Example 6. On and after day 21, the cells were cultured in a neural culture medium (Neurobasal/GlutaMaxI/N2). On day 28, the total amount of the medium was exchanged with the same medium, and SDF1 was added at a final concentration of 300 ng/ml. On day 35, differentiation of the tissue was analyzed by the immunofluorescence method.

[5] = system: Human pluripotent stem cell aggregates; test: Formation of rhombic lip in cerebellar plate tissue by addition of GDF7
Protocol: Human pluripotent stem cell aggregates were cultured according to the method of Example 6. […] The cells were continuously cultured in a neural culture medium (Neurobasal/GlutaMaxI/N2). On day 28, the total amount of the medium was exchanged with the same medium free of GDF7, and on day 35, the cells were analyzed by the immunofluorescence method and the quantitative PCR method.

[6] = FGF2 50 ng/ml day 2 to day 7 vs Fgf2 non-addition, quantitative PCR
[7] = FGF19 100 ng/ml added on day 14, analysed day 35
[8] = SDF1 300 ng/ml added on day 28, analysed day 35
[9] = GDF7 100 ng/ml added on day 21, day 35, quantitative PCR
[10] = GDF7 added from day 14 of culturing

NS(=O)(=O)c1cccc2c1c([N+](=O)[O-])cc1nc(O)c(O)nc12 [NBQX]
miniature excitatory postsynaptic current [1]: suppression of miniature excitatory postsynaptic current

NC(=O)c1ccc(-c2nc(-c3ccc4c(c3)OCO4)c(-c3ccccn3)[nH]2)cc1 [SB431542, 4-(5-benzol[1,3]dioxol-5-yl-4-pyridin-2-yl-1H-imidazol-2-yl)-benzamide, reference compound]
induction of differentiation into neural progenitors (Human ES cells (KhES-1); SB431542 3 μM): induction of differentiation into neural progenitors was also observed
differentiation into neural progenitors in the midbrain-hindbrain boundary (Human ES cells (KhES-1); SB431542 10-30 μM): induced differentiation into neural progenitors in the midbrain-hindbrain boundary

C[C@@H](N)[C@H]1CC[C@H](C(=O)Nc2ccncc2)CC1 [Y-27632, (+)-(R)-trans-4-(1-aminoethyl)-N-(4-pyridyl)cyclohexanecarboxamide, reference compound]
aggregate formation of human ES cells (Human ES cells (KhES-1); when Y-27632 was not added): did not form an aggregate

CC1=C2C[C@H]3[C@@H](CC=C4C[C@@H](O)CC[C@@]43C)[C@@H]2CC[C@]12O[C@@H]1C[C@H](C)CN[C@H]1[C@H]2C [cyclopamine, reference compound]
cerebellar plate formation from human pluripotent stem cells ([2]; Hedgehog inhibitor added): did not significantly promote cerebellar plate formation

FGF2: known cytokine also called basic fibroblast growth factor (bFGF); first fibroblast growth factor
differentiation into neural progenitors in the midbrain-hindbrain boundary (Human ES cells (KhES-1); FGF2 20 ng/ml): promoted differentiation into neural progenitors in the midbrain-hindbrain boundary
expression of forebrain markers Six3 and Otx2 (Human ES cells (KhES-1); [6]): suppressed
expression of midbrain-hindbrain boundary markers En2, Gbx2 (Human ES cells (KhES-1); [6]): markedly increased
differentiation into neural progenitors in the midbrain-hindbrain boundary (Human ES cells (KhES-1); FGF2 100 ng/ml): promoted differentiation into neural progenitors in the midbrain-hindbrain boundary
differentiation into neural progenitors in the midbrain-hindbrain boundary (Human ES cells (KhES-1); FGF2 5-10 ng/ml (concentration used for maintenance culturing of ES cells)): did not show promotion of differentiation
differentiation into neural progenitors in the midbrain-hindbrain boundary (Human ES cells (KhES-1); FGF2 added days 2-7): showed the highest effect
differentiation into neural progenitors in the midbrain-hindbrain boundary (Human ES cells (KhES-1); FGF2 added days 2-14): exhibited a promoting effect
differentiation into neural progenitors in the midbrain-hindbrain boundary (Human ES cells (KhES-1); FGF2 added days 3-7): exhibited a promoting effect
differentiation into neural progenitors in the midbrain-hindbrain boundary (Human ES cells (KhES-1); FGF2 added days 4-7): exhibited a promoting effect
differentiation into neural progenitors in the midbrain-hindbrain boundary (Human ES cells (KhES-1); FGF2 added from day 0): remarkable promotion of differentiation into neural progenitors in the midbrain-hindbrain boundary was not observed
differentiation into neural progenitors in the midbrain-hindbrain boundary (Human ES cells (KhES-1); FGF2 added from day 1): remarkable promotion of differentiation into neural progenitors in the midbrain-hindbrain boundary was not observed
expression of Fgf8 and Wntl (isthmic organizer) (Human ES cells (KhES-1); FGF2 addition, days 10 and 14): enhanced
kirrel2 positive cells (FACS, anti-kirrel2 antibody) ([2]; day 35, cells exposed to Fgf2): ~30%

FGF19: known cytokine, human ortholog of mouse Fgf15; second fibroblast growth factor
effect (frequency) on dorsal-ventral polarity formation relative to that at 100 ng/ml ([3]; FGF19 50 ng/ml): about ⅓
formation of structure having polarity along the dorsal-ventral axis of neural tube ([3]; FGF19 50 ng/ml): promoted formation of a structure having polarity along the dorsal-ventral axis of the neural tube
formation of continuous flat-oval neuroepithelial structure in the cell aggregate [3, 7]: promoted formation of a continuous flat-oval neuroepithelial structure
formation of structure having polarity along the dorsal-ventral axis of neural tube [3, 7]: resulted in the formation of a structure having polarity along the dorsal-ventral axis of neural tube
effect (frequency) on dorsal-ventral polarity formation relative to that at 100 ng/ml ([3]; FGF19 300 ng/ml): of the same level as that at 100 ng/ml
formation of the dorsal-ventral axis pattern ([3]; FGF19 300 ng/ml): similarly promoted formation of the dorsal-ventral axis pattern
formation of a dorsal-ventral axis pattern ([3]; FGF19 added on day 10 of culturing): formation of a dorsal-ventral axis pattern was promoted, though the efficiency was low

SDF1: known chemokine also called CXCL12, secreted ligand for chemokine receptor 4 (CXCR4)
formation of rhombic lip and 3 layer structure of cerebellar plate ([4]; SDF1 100 ng/ml): promoted formation of rhombic lip and formation of a 3 layer structure of cerebellar plate
configuration of the rhombic lip [4, 8]: enables continuous configuration of the rhombic lip
formation of continuous kirrel2 positive neuroepithelial structure [4, 8]: promoted formation of a continuous kirrel2 positive neuroepithelial structure
formation of rhombic lip and 3 layer structure of cerebellar plate ([4]; SDF1 500 ng/ml): promoted formation of rhombic lip and formation of a 3 layer structure of cerebellar plate
formation of rhombic lip and 3 layer structure of cerebellar plate ([4]; SDF1 added from day 21): an effect similar to that when added from day 28 was observed

Sonic Hedgehog
formation of polarized cerebellar plate ([2]; addition of Sonic Hedgehog to human pluripotent stem cell culturing system): conversely promotes formation of polarized cerebellar plate

laminin
formation of rhombic lip and 3 layer structure of cerebellar plate ([4]; used in place of SDF1): could not substitute SDF1

B1: FGF17: fibroblast growth factor used instead of FGF19 (protein, UniProt O60258 23-216, looked up)
Fibroblast growth factor 17: TQGENHPSPNFNQYVRDQGAMTDQLSRRQIREYQLYSRTSGKHVQVTGRRISATAEDGNKFAKLIVETDTFGSRVRIKGAESEKYICMNKRGKLIGKPSGKSKDCVFTEIVLENNYTAFQNARHEGWFMAFTRQGRPRQASRSRQNQREAHFIKRLYQGQLPFPNHAEKQKQFEFVGSAPTRRTKRTRRPQPLT
formation of a dorsal-ventral axis pattern ([3]; used instead of FGF19): promoted like FGF19, though the effect was weaker than FGF19

B2: FGF8: fibroblast growth factor used instead of FGF19 (protein, UniProt P55075 23-233, looked up)
Fibroblast growth factor 8: QEGPGRGPALGRELASLFRAGREPQGVSQQHVREQSLVTDQLSRRLIRTYQLYSRTSGKHVQVLANKRINAMAEDGDPFAKLIVETDTFGSRVRVRGAETGLYICMNKKGKLIAKSNGKGKDCVFTEIVLENNYTALQNAKYEGWYMAFTRKGRPRKGSKTRQHQREVHFMKRLPRGHHTTEQSLRFEFLNYPPFTRSLRGSQRTWAPEPR
formation of a dorsal-ventral axis pattern ([3]; used instead of FGF19): promoted like FGF19, though the effect was weaker than FGF19

B3: GDF7: known cytokine promoting differentiation into cerebellar granule cell progenitors and formation of rhombic lip (protein, UniProt Q7Z4P5 322-450, looked up)
Growth/differentiation factor …: TALAGTRTAQGSGGGAGRGHGRRGRSRCSRKPLHVDFKELGWDDWIIAPLDYEAYHCEGLCDFPLRSHLEPTNHAIIQTLLNSMAPDAAPASCCVPARLSPISILYIDAANNVVYKQYEDMVVEACGCR
expression of Atoh1 positive cell in neural progenitor tissue ([5]; GDF7 100 ng/ml added on day 21, analysed day 35, immunofluorescence): promoted expression of Atoh1 positive cell
Atoh1 gene level relative to that by the addition of FGF2 (first comparison printed) [5, 9]: about 220 fold
Atoh1 gene level relative to that by the addition of FGF2 (second comparison printed) [5, 9]: 1.5 fold
growth of cell aggregate [5, 10]: growth of cell aggregate was inhibited
induction of Atoh1 positive cell [5, 10]: Atoh1 positive cell was induced
formation of the rhombic lip ([5]; GDF7 not removed from the medium on and after day 28): adverse influence on the formation of the rhombic lip was not found

B4: BMP4: factor known to promote formation of rhombic lip in mouse (protein, UniProt P12644 293-408, looked up)
Bone morphogenetic protein 4: SPKHHSQRARKKNKNCRRHSLYVDFSDVGWNDWIVAPPGYQAFYCHGDCPFPLADHLNSTNHAIVQTLVNSVNSSIPKACCVPTELSAISMLYLDEYDKVVLKNYQEMVVEGCGCR
formation of the rhombic lip from human pluripotent stem cell ([5]; BMP4 used instead of GDF7): could not be induced

Reference: patent publication US10781420B2, “Method for producing cerebellar progenitor tissue” (RIKEN, priority 2014, dated 2020)
